ChEMBL document CHEMBL1151358, “Doridosine, 1-methylisoguanosine, from Anisodoris nobilis; structure, pharmacological properties and synthesis” (1981)

Experiments:
[1] = Inhibition of guinea pig atrial contraction at 5 uM in presence of 10 uM/L theophylline; format: functional, Cavia porcellus, Cardiac atrium
[2] = Inhibition of guinea pig atrial contraction at 5 uM in presence of 100 uM/L theophylline; format: functional, Cavia porcellus, Cardiac atrium
[3] = Inhibition of guinea pig atrial contraction at 20 uM in presence of 100 uM/L theophylline; format: functional, Cavia porcellus, Cardiac atrium
[4] = Inhibition of guinea pig atrial contraction at 5 uM; format: functional; details: Cavia porcellus, Cardiac atrium
[5] = Inhibition of guinea pig atrial contraction at 20 uM in presence of 10 uM/L theophylline; format: functional, Cavia porcellus, Cardiac atrium
[6] = Inhibition of guinea pig atrial contraction at 20 uM; format: functional; details: Cavia porcellus, Cardiac atrium
[7] = Inhibition of guinea pig atrial contraction at 14 uM; format: functional; details: Cavia porcellus, Cardiac atrium

Cn1c(=O)[nH]c2c(ncn2[C@@H]2O[C@H](CO)[C@@H](O)[C@H]2O)c1=N
inhibition (INH) [1]: 83% | inhibition (INH) [2]: 64% | inhibition (INH) [3]: 82% | inhibition at 5 µM [4]: 65% | inhibition (INH) [5]: 95% | inhibition at 20 µM [6]: 45.2% | inhibition at 14 µM [7]: 50%
